These results are taken from US11040954B1, “CXCR3 receptor agonists” (RECEPTOS LLC, priority 2016, dated 2021).

For orientation: EC50 means the concentration at which the effect is half-maximal.

SMILES strings stand for the structures. A value given as a limit tells only on which side of the number the result lay.

This assay deals with T1, CXCR3 (Homo sapiens, UniProt P49682).
T1 construct: host or cells: CHO-K1 (cAMP Hunter CHOK1 CXCR3 Gi cell line)
T1 sequence (P49682 1-368): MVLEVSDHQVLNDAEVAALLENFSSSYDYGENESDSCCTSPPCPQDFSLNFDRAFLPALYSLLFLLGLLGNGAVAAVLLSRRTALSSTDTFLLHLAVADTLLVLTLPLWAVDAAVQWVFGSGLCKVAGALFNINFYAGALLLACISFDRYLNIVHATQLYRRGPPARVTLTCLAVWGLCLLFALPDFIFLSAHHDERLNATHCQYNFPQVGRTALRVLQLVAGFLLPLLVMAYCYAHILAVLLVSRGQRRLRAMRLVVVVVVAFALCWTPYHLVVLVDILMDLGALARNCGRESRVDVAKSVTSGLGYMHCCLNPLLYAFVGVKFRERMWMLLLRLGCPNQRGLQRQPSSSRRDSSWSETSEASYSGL
The experiment in a line: CXCR3 cAMP agonist assay (cAMP Hunter CHOK1 CXCR3 Gi cell line, forskolin-stimulated, HitHunter cAMP detection). It counts as cell-based. The following applies: cAMP Hunter CHOK1 CXCR3 Gi cells, 20 μM forskolin, 30 minutes; read-out: Activity (CXCR3 cAMP agonist assay compound EC50). On the procedure: The cAMP Hunter™ CHOK1 CXCR3 Gi cell line was purchased from DiscoveRx. Cells were seeded into a 96-well white assay plate at 50,000 cells/well/94 μl assay buffer (Hank's Buffered Saline Solution, 10 mM HEPES, 0.1% fatty acid-free BSA, pH 7.4) and immediately assayed in suspension. Forskolin was added to 20 μM (5 μl of 400 μM stock) simultaneously with a 12-point dose response curve of compound at 0-10 μM (1 μl of 100× stock in 100% DMSO), and cells were incubated for 30 minutes. A cAMP standard curve is run as an assay control. A CXCL11 dose response was included to determine maximum efficacy. Direct detection of cAMP was carried out using the DiscoveRx HitHunter cAMP kit according to manufacturer's instructions, and luminescence was read using a SpectraMax M5 plate reader.
In the case of `Cc1cc(NC(=O)[C@H](CCN2CCC(F)(F)CC2)NC(=O)[C@@H]2Cc3ccccc3CN2C(=O)CCC(=O)c2ccccc2)ccc1Cl` [Compound 17-4], the EC50 lay in the range of 50 to 250 nM.

For `NCC[C@H](NC(=O)[C@@H]1Cc2ccccc2CN1C(=O)CCC(=O)N1CCC2(CC1)CC(F)(F)C2)C(=O)Nc1ccc(Cl)c(Cl)c1F` [Compound 15-24], the EC50 lay in the range of 250 to 500 nM.

As for `COc1ccc(C)cc1NC(=O)[C@H](CCN)NC(=O)[C@@H]1Cc2ccccc2CN1C(=O)CCC(=O)c1ccccc1` [Compound 1-38], the EC50 is less than 50 nM.

In the case of `Cc1c(F)cc(NC(=O)[C@H](CCN)NC(=O)[C@@H]2Cc3ccccc3CN2C(=O)CCC(=O)c2ccccc2)cc1F` [Compound 27-5], the EC50 is less than 50 nM.

Consider `Cc1cc(NC(=O)[C@H](CCN)NC(=O)[C@@H]2Cc3ccccc3CN2C(=O)CCC(=O)N2CCCC(C)(C)C2)ncc1Cl` [Compound 12-155], for which the EC50 was less than 50 nM.

On to `Cc1cc(NC(=O)[C@H](CCN)NC(=O)[C@@H]2Cc3ccccc3CN2C(=O)CCC(=O)N2CCOCC2)ccc1Cl` [Compound 10-2], for which the EC50 was in the range of 50 to 250 nM.

For `Cc1cc(NC(=O)[C@H](CCN)NC(=O)[C@@H]2Cc3ccccc3CN2C(=O)CCC(=O)N2CCN(CC#N)CC2)ccc1Cl` [Compound 12-117], the EC50 is 50 to 250 nM.

Take `O=C(CCC(=O)N1Cc2ccccc2C[C@H]1C(=O)NC1(C(=O)Nc2cccc(Cl)c2Cl)CCNCC1)c1ccccc1` [Compound 11-5]: the EC50 was greater than 500 nM.

With `CC[C@@H]1CCCN1C(=O)CCC(=O)N1Cc2ccccc2C[C@H]1C(=O)N[C@@H](CCN)C(=O)Nc1ccc(Cl)c(C)c1` [Compound 12-65], the EC50 is less than 50 nM.

For `Cc1cc(NC(=O)[C@H](CCCCN)NC(=O)[C@@H]2Cc3ccccc3CN2C(=O)CCC(=O)c2cccc(Cl)c2)ccc1Cl` [Compound 7-2], the EC50 was 50 to 250 nM.

Consider `CC(C)(C)CC1CCCCN1C(=O)CCC(=O)N1Cc2ccccc2C[C@H]1C(=O)N[C@@H](CCN)C(=O)Nc1ccc(Cl)c(Cl)c1F` (some centres unmarked) [Compound 15-14], for which the EC50 is 50 to 250 nM.

Consider `Cc1cc(NC(=O)[C@H](Cc2ccnc(N)c2)NC(=O)[C@@H]2Cc3ccccc3CN2C(=O)CCC(=O)c2ccccc2)ccc1Cl` [Compound 3-10], for which the EC50 lay in the range of 50 to 250 nM.

Take `COc1cc(F)c(F)cc1NC(=O)[C@H](CCN)NC(=O)[C@@H]1Cc2ccccc2CN1C(=O)CCC(=O)c1ccccc1` [Compound 2-70]: the EC50 is 250 to 500 nM.

For the compound `NCC[C@H](NC(=O)[C@@H]1Cc2ccccc2CN1C(=O)CCC(=O)N1CCC2CCCCC2C1)C(=O)Nc1ccc2c(c1)CCC2` (some centres unmarked) [Compound 10-5], the EC50 was less than 50 nM.

Turning to `CCC(CC)C1CCCCN1C(=O)CCC(=O)N1Cc2ccccc2C[C@H]1C(=O)N[C@@H](CCN)C(=O)Nc1ccc(Cl)c(Cl)c1F` (some centres unmarked) [Compound 15-23], the EC50 was 50 to 250 nM.

`Cc1cc(NC(=O)[C@H](CCN)NC(=O)[C@@H]2Cc3ccccc3CN2C(=O)CCC(=O)N2CCC[C@@H]2C)ccc1Cl` [Compound 12-45]: the EC50 was less than 50 nM.

On to `NCC[C@H](NC(=O)[C@@H]1Cc2ccccc2CN1C(=O)CCC(=O)N1CCCCC12CCC2)C(=O)Nc1ccc(Cl)c(Cl)c1F` [Compound 15-7], for which the EC50 is less than 50 nM.

Take `Cc1cc(NC(=O)[C@H](CCN)NC(=O)[C@@H]2Cc3ccccc3CN2C(=O)CCC(=O)N2CCCC2C(F)(F)F)ccc1Cl` (some centres unmarked) [Compound 12-51]: the EC50 was less than 50 nM.

Regarding `Cc1cc(NC(=O)[C@H](CCN)NC(=O)[C@@H]2Cc3ccccc3CN2C(=O)CCC(=O)N(C)CC(F)(F)F)ccc1Cl` [Compound 12-119], the EC50 is 250 to 500 nM.

`Cc1cc(NC(=O)[C@H](CCN)NC(=O)[C@@H]2Cc3ccccc3CN2C(=O)CCC(=O)N2CCC[C@@H](C)C2)ccc1Cl` [Compound 12-57]: the EC50 was less than 50 nM.

As for `CC1(C)CCCCN1C(=O)CCC(=O)N1Cc2ccccc2C[C@H]1C(=O)NC1(C(=O)Nc2ccc(Cl)c(Cl)c2F)CCNCC1` [Compound 12-135], the EC50 is less than 50 nM.

Consider `CCc1cc(Cl)c(C)cc1NC(=O)[C@H](CCN)NC(=O)[C@@H]1Cc2ccccc2CN1C(=O)CCC(=O)c1ccccc1` [Compound 2-41], for which the EC50 lay within 50 to 250 nM.

Consider `CCc1c(Cl)ccc(NC(=O)[C@H](CCN)NC(=O)[C@@H]2Cc3ccccc3CN2C(=O)CCC(=O)c2ccccc2)c1Cl` [Compound 14-21], for which the EC50 lay within 50 to 250 nM.

Take `Cc1cc(NC(=O)[C@@](C)(CCCCN)NC(=O)[C@@H]2Cc3ccccc3CN2C(=O)CCC(=O)c2ccccc2)ccc1Cl` [Compound 4-9]: the EC50 is 50 to 250 nM.

On to `COC1CCN(C(=O)CCC(=O)N2Cc3ccccc3C[C@H]2C(=O)N[C@@H](CCN)C(=O)Nc2ccc(Cl)c(C)c2)C1` (some centres unmarked) [Compound 12-64], for which the EC50 was less than 50 nM.

`Cc1cc(NC(=O)[C@](C)(CCCCN)NC(=O)[C@@H]2Cc3ccccc3CN2C(=O)CCC(=O)c2ccccc2)ccc1Cl` [Compound 4-10]: the EC50 is 50 to 250 nM.

For `NCCCC[C@H](NC(=O)[C@@H]1Cc2ccccc2CN1C(=O)CCC(=O)c1ccccc1)C(=O)Nc1ccccc1F` [Compound 1-15], the EC50 is 250 to 500 nM.

`N#Cc1ccc2c(c1)CN(C(=O)CCC(=O)c1ccccc1)[C@H](C(=O)N[C@@H](CCN)C(=O)Nc1ccc(Cl)c(Cl)c1F)C2` [Compound 30-1, (S)—N—((S)-4-amino-1-((3,4-dichloro-2-fluorophenyl)amino)-1-oxobutan-2-yl)-7-cyano-2-(4-oxo-4-phenylbutanoyl)-1,2,3,4-tetrahydroisoquinoline-3-carboxamide]: the EC50 is 50 to 250 nM.

As to `Cc1cc(NC(=O)[C@H](CCN)NC(=O)[C@@H]2Cc3ccccc3CN2C(=O)CCC(=O)NC2(C(F)(F)F)CC2)ccc1Cl` [Compound 12-85], the EC50 was greater than 500 nM.

As for `Cc1cc(NC(=O)[C@H](Cc2ccncc2)NC(=O)[C@@H]2Cc3ccccc3CN2C(=O)CCC(=O)c2ccccc2)ccc1Cl` [Compound 3-4], the EC50 was 50 to 250 nM.

`O=C(CCC(=O)N1Cc2ccccc2C[C@H]1C(=O)N[C@@H](CCN1CCS(=O)(=O)CC1)C(=O)Nc1ccc2c(c1)CCC2)c1ccccc1` [Compound 23-9]: the EC50 fell in the range of 50 to 250 nM.

Take `NCC[C@H](NC(=O)[C@@H]1Cc2ccccc2CN1C(=O)CCC(=O)c1ccccc1)C(=O)NC1Cc2ccccc2C1` [Compound 2-66]: the EC50 was less than 50 nM.

In the case of `CCOc1cccc(C(=O)CCC(=O)N2Cc3ccccc3C[C@H]2C(=O)N[C@@H](CCCCN)C(=O)Nc2ccc(Cl)c(C)c2)c1` [Compound 7-7], the EC50 lay in the range of 50 to 250 nM.

Turning to `CC1(C)CCCN1C(=O)CCC(=O)N1Cc2ccccc2C[C@H]1C(=O)N[C@@H](CCN)C(=O)Nc1ccc(Cl)c(Cl)c1F` [Compound 15-4], the EC50 is less than 50 nM.

Consider `NCC[C@H](NC(=O)[C@@H]1Cc2ccccc2CN1C(=O)CCC(=O)c1ccccc1)C(=O)Nc1ccc2ccccc2c1` [Compound 2-28], for which the EC50 was less than 50 nM.

With `NCC[C@H](NC(=O)[C@@H]1Cc2ccc(F)cc2CN1C(=O)CCC(=O)N1CCCC2(CCC2)C1)C(=O)Nc1ccc(Cl)c(Cl)c1F` [Compound 15-58], the EC50 was less than 50 nM.

`CC[C@H]1CN(C(=O)CCC(=O)N2Cc3ccccc3C[C@H]2C(=O)N[C@@H](CCN)C(=O)Nc2ccc(Cl)c(C)c2)CCN1C` [Compound 12-150]: the EC50 was less than 50 nM.

With `CN(C)[C@@H]1CCN(C(=O)CCC(=O)N2Cc3ccccc3C[C@H]2C(=O)N[C@@H](CCN)C(=O)Nc2ccc(Cl)c(Cl)c2F)C1` [Compound 15-31], the EC50 is less than 50 nM.

`Cc1cc(NC(=O)[C@H](CCN)NC(=O)[C@@H]2Cc3ccccc3CN2C(=O)CCC(=O)N2CC(Cc3ccccc3)C2)ccc1Cl` [Compound 12-38]: the EC50 was 250 to 500 nM.

Turning to `O=C(NC1(C(=O)Nc2ccc(Cl)c(Cl)c2F)CCNCC1)[C@@H]1Cc2ccccc2CN1C(=O)CCC(=O)N1CCCC2(CCC2)C1` [Compound 12-128], the EC50 is less than 50 nM.

On to `CC1CN(C(=O)CCC(=O)N2Cc3ccccc3C[C@H]2C(=O)N[C@@H](CCN)C(=O)Nc2ccc(Cl)c(Cl)c2F)CC1C` (some centres unmarked) [Compound 15-29], for which the EC50 is less than 50 nM.

Consider `Cc1cc(NC(=O)[C@H](CCN)NC(=O)[C@@H]2Cc3ccccc3CN2C(=O)CCC(=O)N2CCCC(F)C2)ccc1Cl` (some centres unmarked) [Compound 12-63], for which the EC50 was less than 50 nM.

With `Cc1cc(NC(=O)[C@H](CCN)NC(=O)[C@@H]2Cc3ccccc3CN2C(=O)CCC(=O)N2CCCC23CCC3)ccc1Cl` [Compound 12-73], the EC50 is less than 50 nM.

On to `CCN1CCN(C(=O)CCC(=O)N2Cc3ccccc3C[C@H]2C(=O)N[C@@H](CCN)C(=O)Nc2ccc(Cl)c(C)c2)CC1` [Compound 12-99], for which the EC50 was 50 to 250 nM.

As for `NCC[C@H](NC(=O)[C@@H]1Cc2ccccc2CN1C(=O)CCC(=O)c1ccccc1)C(=O)NC1CCc2ccccc2C1` (some centres unmarked) [Compound 2-81], the EC50 lay within 50 to 250 nM.

For `NCC[C@H](NC(=O)[C@@H]1Cc2ccccc2CN1C(=O)CCC(=O)c1ccccc1)C(=O)Nc1cc(Cl)c(Cl)cc1C(F)(F)F` [Compound 14-2], the concentration giving a half-maximal response (EC50) is less than 50 nM.

On to `CCc1ccc(NC(=O)[C@H](CCN)NC(=O)[C@@H]2Cc3ccccc3CN2C(=O)CCC(=O)c2ccccc2)c(F)c1` [Compound 2-56], for which the EC50 lay within 250 to 500 nM.
